Among the data in patent publication US9771379B2, “N-(2-(2-amino-6-substituted-4,4a,5,6-tetrahydropyrano[3,4-d][1,3]OXAZIN-8a(8H)-yl)-thiazol-4-yl) amides” (Pfizer Inc., priority 2015, dated 2017) are IC50 and biological activity values, retold here.

The IC50 is the concentration that inhibits the measured activity by half. A higher IC50 goes with a need for much substance.

The assay addresses BACE1 enzyme (Homo sapiens (Human), UniProt P56817). Nature of the assay: BACE1 Cell-Free Assay. In kind it is biochemical. Conditions: for IC50: fluorescence polarization, synthetic APP substrate, pH 4.5; for biological activity: stated in words, used to assign absolute stereochemistry. The text has this: This assay measures the inhibition of the beta-secretase enzyme as it cleaves a non-native peptide.
A synthetic APP substrate that can be cleaved by beta-secretase having N-terminal biotin and made fluorescent by the covalent attachment of Oregon Green at the Cys residue is used to assay beta-secretase activity in the presence or absence of the inhibitory compounds. […] The BACE1 enzyme is affinity purified material from conditioned media of CHO-K1 cells that have been transfected with a soluble BACE construct (BACE1delta™96His). […] Plates are covered and incubated for 3 hours at 37° C. […] The activity of the beta-secretase enzyme is detected by changes in the fluorescence polarization that occur when the substrate is cleaved by the enzyme.

Chain of BACE1 enzyme (P56817 46-457): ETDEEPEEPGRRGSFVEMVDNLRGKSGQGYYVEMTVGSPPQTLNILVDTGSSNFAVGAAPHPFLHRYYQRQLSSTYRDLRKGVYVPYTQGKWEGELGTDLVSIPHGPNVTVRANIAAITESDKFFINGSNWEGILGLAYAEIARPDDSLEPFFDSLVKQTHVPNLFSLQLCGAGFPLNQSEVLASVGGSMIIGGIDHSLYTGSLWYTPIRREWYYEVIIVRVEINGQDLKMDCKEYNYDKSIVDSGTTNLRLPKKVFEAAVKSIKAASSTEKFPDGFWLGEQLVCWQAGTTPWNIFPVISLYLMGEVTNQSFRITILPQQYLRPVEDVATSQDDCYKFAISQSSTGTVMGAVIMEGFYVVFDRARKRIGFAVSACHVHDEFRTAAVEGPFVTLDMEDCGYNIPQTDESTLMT

Regarding `NC1=N[C@@]2(c3nc(NC(=O)c4ncc(OC(F)F)cc4Cl)cs3)CO[C@@H](C(F)(F)F)C[C@H]2CO1` [Example 13a, N-(2-((4aR,6R,8aR)-2-amino-6-(trifluoromethyl)-4,4a,5,6-tetrahydropyrano[3,4-d][1,3]oxazin-8a(8H)-yl)thiazol-4-yl)-3-chloro-5-(difluoromethoxy)picolinamide], the IC50 is 184 nM and the biological activity result is reported as “active”. `CC1(C)C[C@H]2COC(N)=N[C@@]2(c2nc(NC(=O)c3ccc(OC(F)F)cn3)cs2)CO1` [Example 8, N-(2-((4aR,8aR)-2-Amino-6,6-dimethyl-4,4a,5,6-tetrahydropyrano[3,4-d][1,3]oxazin-8a(8H)-yl)thiazol-4-yl)-5-(difluoromethoxy)picolinamide] showed an IC50 of 610 nM.

Turning to `NC1=N[C@]2(c3nc(NC(=O)c4ncc(OC(F)F)cc4Cl)cs3)CO[C@H](C(F)(F)F)C[C@@H]2CO1` [Example 13b, N-(2-((4aS,6S,8aS)-2-amino-6-(trifluoromethyl)-4,4a,5,6-tetrahydropyrano[3,4-d][1,3]oxazin-8a(8H)-yl)thiazol-4-yl)-3-chloro-5-(difluoromethoxy)picolinamide], the IC50 was 6970 nM and the biological activity entry is “inactive”. As to `Cc1cc(OC(F)F)cnc1C(=O)Nc1csc([C@]23CO[C@@H](C)C[C@H]2COC(N)=N3)n1` [Example 3, N-(2-((4aR,6S,8aR)-2-amino-6-methyl-4,4a,5,6-tetrahydropyrano[3,4-d][1,3]oxazin-8a(8H)-yl)thiazol-4-yl)-5-(difluoromethoxy)-3-methylpicolinamide], the IC50 was 85 nM.

In the case of `C[C@H]1C[C@H]2COC(N)=N[C@@]2(c2nc(NC(=O)c3ncc(OC(F)F)cc3Cl)cs2)CO1` [Example 2, N-(2-((4aR,6S,8aR)-2-amino-6-methyl-4,4a,5,6-tetrahydropyrano[3,4-d][1,3]oxazin-8a(8H)-yl)thiazol-4-yl)-3-chloro-5-(difluoromethoxy)picolinamide], the IC50 turned out to be 123 nM.

Regarding `NC1=N[C@@]2(c3nc(NC(=O)c4ccc(Cl)cn4)cs3)CO[C@@H](C(F)(F)F)C[C@H]2CO1` [Example 10a, N-(2-((4aR,6R,8aR)-2-amino-6-(trifluoromethyl)-4,4a,5,6-tetrahydropyrano[3,4-d][1,3]oxazin-8a(8H)-yl)thiazol-4-yl)-5-chloropicolinamide], 310 nM corresponded to half-maximal inhibition (IC50) and the biological activity result is “active”. `NC1=N[C@@]2(c3nc(NC(=O)c4ccc(OC(F)F)cn4)cs3)CO[C@@H](C(F)(F)F)C[C@H]2CO1` [Example 12a, N-(2-((4aR,6R,8aR)-2-amino-6-(trifluoromethyl)-4,4a,5,6-tetrahydropyrano[3,4-d][1,3]oxazin-8a(8H)-yl)thiazol-4-yl)-5-(difluoromethoxy)picolinamide] showed an IC50 of 371 nM.

The compound `Cc1cc(OC(F)F)cnc1C(=O)Nc1csc([C@@]23CO[C@H](C(F)(F)F)C[C@@H]2COC(N)=N3)n1` [Example 11b, N-(2-((4aS,6S,8aS)-2-amino-6-(trifluoromethyl)-4,4a,5,6-tetrahydropyrano[3,4-d][1,3]oxazin-8a(8H)-yl)thiazol-4-yl)-5-(difluoromethoxy)-3-methylpicolinamide] came in with an IC50 of 10800 nM. The same measure, in the same setting: under `N#Cc1ccc(C(=O)Nc2csc([C@]34COC5(CCC5)C[C@H]3COC(N)=N4)n2)nc1` [Example 16, N-(2-((4a′R,8a′R)-2′-amino-4a′,5′-dihydro-4′H-spiro [cyclobutane-1,6′-pyrano [3,4-d][1,3]oxazin]-8a′(8′H)-yl)thiazol-4-yl)-5-cyano picolinamide] stands 395 nM; under `NC1=N[C@@]2(c3nc(NC(=O)c4cnc(OC(F)F)cn4)cs3)COC3(CCC3)C[C@H]2CO1` [Example 17, N-(2-((4a′R,8a′R)-2′-amino-4a′,5′-dihydro-4′H-spiro [cyclobutane-1,6′-pyrano [3,4-d][1,3]oxazin]-8a′(8′H)-yl)thiazol-4-yl)-5-(difluoromethoxy)pyrazine-2-carboxamide], 2260 nM; under `Cc1cc(OC(F)F)cnc1C(=O)Nc1csc([C@]23CO[C@@H](C(F)(F)F)C[C@H]2COC(N)=N3)n1` [Example 11a, N-(2-((4aR,6R,8aR)-2-amino-6-(trifluoromethyl)-4,4a,5,6-tetrahydropyrano[3,4-d][1,3]oxazin-8a(8H)-yl)thiazol-4-yl)-5-(difluoromethoxy)-3-methylpicolinamide], 155 nM.

Take `C[C@H]1C[C@H]2[C@@H](C(F)(F)F)OC(N)=N[C@@]2(c2nc(NC(=O)c3ccc(OC(F)F)cn3)cs2)CO1` [Example 7, N-(2-((4S,4aR,6S,8aR)-2-amino-6-methyl-4-(trifluoromethyl)-4,4a,5,6-tetrahydropyrano[3,4-d][1,3]oxazin-8a(8H)-yl)thiazol-4-yl)-5-(difluoromethoxy)picolinamide]: half-maximal inhibition (IC50) was put at 112 nM. The same measure, in the same setting: then `Cc1cc(OC(F)F)cnc1C(=O)Nc1csc([C@]23COC4(CCC4)C[C@H]2COC(N)=N3)n1` [Example 15, N-(2-((4a′R,8a′R)-2′-amino-4a′,5′-dihydro-4′H-spiro[cyclobutane-1,6′-pyrano[3,4-d][1,3]oxazin]-8a′(8′H)-yl)thiazol-4-yl)-5-(difluoromethoxy)-3-methyl picolinamide], with 370 nM. In turn, `C[C@H]1C[C@H]2CCOC(N)=N[C@@]2(c2nc(NC(=O)c3ccc(OC(F)F)cn3)cs2)CO1` [Example 4, N-(2-((5aR,7S,9aR)-2-amino-7-methyl-5,5a,6,7-tetrahydro-4H-pyrano[3,4-d][1,3]oxazepin-9a(9H)-yl)thiazol-4-yl)-5-(difluoromethoxy)picolinamide] displayed an IC50 of 146 nM. Still for that read-out and setting: under `Cc1cc(C#N)cnc1C(=O)Nc1csc([C@]23COC4(CCC4)C[C@H]2COC(N)=N3)n1` [Example 19, N-(2-((4a′R,8a′R)-2′-amino-4a′,5′-dihydro-4′H-spiro [cyclobutane-1,6′-pyrano [3,4-d][1,3]oxazin]-8a′(8′H)-yl)thiazol-4-yl)-5-cyano-3-methylpicolinamide] stands 185 nM; under `Cc1cc(OC(F)F)cnc1C(=O)Nc1csc([C@]23CO[C@@H](C)C[C@H]2CCOC(N)=N3)n1` [Example 5, N-(2-((5aR,7S,9aR)-2-amino-7-methyl-5,5a,6,7-tetrahydro-4H-pyrano[3,4-d][1,3]oxazepin-9a(9H)-yl)thiazol-4-yl)-5-(difluoromethoxy)-3-methylpicolinamide], 71 nM.

Take `NC1=N[C@]2(c3nc(NC(=O)c4ccc(Cl)cn4)cs3)CO[C@H](C(F)(F)F)C[C@@H]2CO1` [Example 10b, N-(2-((4aS,6S,8aS)-2-amino-6-(trifluoromethyl)-4,4a,5,6-tetrahydropyrano[3,4-d][1,3]oxazin-8a(8H)-yl)thiazol-4-yl)-5-chloropicolinamide]: half-maximal inhibition (IC50) was put at 16700 nM and the biological activity entry is “inactive”.

`NC1=N[C@]2(c3nc(NC(=O)c4ccc(OC(F)F)cn4)cs3)CO[C@H](C(F)(F)F)C[C@@H]2CO1` [Example 12b, N-(2-((4aS,6S,8aS)-2-amino-6-(trifluoromethyl)-4,4a,5,6-tetrahydropyrano[3,4-d][1,3]oxazin-8a(8H)-yl)thiazol-4-yl)-5-(difluoromethoxy)picolinamide] yielded an IC50 of 15000 nM. Still for that read-out and setting: under `C[C@H]1C[C@H]2[C@@H](CF)OC(N)=N[C@@]2(c2nc(NC(=O)c3ccc(OC(F)F)cn3)cs2)CO1` [Example 6, N-(2-((4S,4aR,6S,8aR)-2-amino-4-(fluoromethyl)-6-methyl-4,4a,5,6-tetrahydropyrano[3,4-d][1,3]oxazin-8a(8H)-yl)thiazol-4-yl)-5-(difluoromethoxy)picolinamide] stands 270 nM; under `Cc1cc(OC(F)F)cnc1C(=O)Nc1csc([C@]23COC(C)(C)C[C@H]2COC(N)=N3)n1` [Example 9, N-(2-((4aR,8aR)-2-amino-6,6-dimethyl-4,4a,5,6-tetrahydropyrano[3,4-d][1,3]oxazin-8a(8H)-yl)thiazol-4-yl)-5-(difluoromethoxy)-3-methylpicolinamide], 475 nM; under `C[C@H]1C[C@H]2COC(N)=N[C@@]2(c2nc(NC(=O)c3ccc(OC(F)F)cn3)cs2)CO1` [Example 1, N-(2-((4aR,6S,8aR)-2-amino-6-methyl-4,4a,5,6-tetrahydropyrano[3,4-d][1,3]oxazin-8a(8H)-yl)thiazol-4-yl)-5-(difluoromethoxy)picolinamide], 214 nM. Same read-out and setting: under `NC1=N[C@@]2(c3nc(NC(=O)c4ncc(OC(F)F)cc4Cl)cs3)COC3(CCC3)C[C@H]2CO1` [Example 18, N-(2-((4a′R,8a′R)-2′-amino-4a′,5′-dihydro-4′H-spiro [cyclobutane-1,6′-pyrano[3,4-d][1,3]oxazin]-8a′(8′H)-yl)thiazol-4-yl)-3-chloro-5-(difluoromethoxy) picolinamide] stands 561 nM.
